These results are taken from ChEMBL document CHEMBL5518246, “Discovery of Small Molecule Interleukin 17A Inhibitors with Novel Binding Mode and Stoichiometry: Optimization of DNA-Encoded Chemical Library Hits to In Vivo Active Compounds” (J Med Chem, 2024).

In brackets after ≈: the same amount, converted by molar mass.

A short description of data set [1]: Metabolic stability in human liver microsomes assessed as unbound intrinsic clearance at 0.5 uM measured after 4 hrs. The class given is ADME, Microsome. Background: Liver microsomes are vesicles of endoplasmic reticulum, rich in cytochrome P450 enzymes.
Data set [2] is described as follows: Oral bioavailability in mouse at 10 mg/kg. The format is ADME, organism-based. Particulars: in vivo.
Data set [3] in a line: Unbound plasma clearance in iv dosed CD-1 mouse measured after 24 hrs. The class given is ADME, organism-based. Particulars: in vivo.
A short description of data set [4]: Thermodynamic solubility of the compound at pH 7.4 measured after 48 hrs by UHPLC analysis. The class given is physicochemical. Conditions: buffer, read-out: Therm_solubility.
A short description of data set [5]: Plasma clearance in iv dosed CD-1 mouse measured after 24 hrs. The format is ADME, organism-based.
Data set [6] can be described thus: Oral bioavailability in mouse at 1 mg/kg. The format is ADME, organism-based. Conditions: in vivo.
Data set [7] in a line: Half life in Sprague-Dawley rat at 1 mg/kg, iv measured after 24 hrs. The format is ADME, organism-based. Conditions: in vivo.
Data set [8] in a line: Drug uptake in IL17A-induced CXCL1 secretion in C57BL/6 mouse at 10 mg/kg, iv pretreated 1 hr before IL17A challenge measured after 2 hrs. The class given is ADME, organism-based. Conditions: in vivo, read-out: Drug uptake.
Data set [9] in a line: Metabolic stability in rat liver microsomes assessed as unbound intrinsic clearance. The class given is ADME, Microsome.
The nature of data set [10]: Plasma clearance in Sprague-Dawley rat at 1 mg/kg, iv measured after 24 hrs. The format is ADME, organism-based.
Data set [11] is described as follows: Thermodynamic solubility of the compound in FaSSIF at pH 6.5 after 48 hrs by UHPLC analysis. The class given is ADME. Particulars: read-out: Therm_solubility.
A short description of data set [12]: Volume of distribution at steady-state in Sprague-Dawley rat at 1 mg/kg, iv measured after 24 hrs. The class given is ADME, organism-based. Particulars: in vivo, read-out: Vdss.
Data set [13] in a line: Unbound plasma clearance in Sprague-Dawley rat at 1 mg/kg, iv measured after 24 hrs. Conditions: in vivo. The class given is ADME, organism-based.

In the case of `C[C@H](NC(=O)[C@]1(NC(=O)c2cc(Cl)c(Cl)[nH]2)CO[C@H](c2ccccc2)C1)c1cn2c(=O)n(C)cc(F)c2n1`, the CL free turned out to be 61.7 mL/min/kg in data set [1] and 1830 mL/min/kg in data set [3]. Besides, in data set [2], the bioavailability is 22%. The solubility thermodynamic at 48 h in data set [4] is 0.82 µM (≈ 0.46 µg/mL). In [5], this molecule showed a clearance of 33.3 mL/min/kg.

For `O=C(N[C@@H](CCc1ccccc1)C(=O)NCc1ncc2c(n1)CCC2)c1cc(Cl)c(Cl)[nH]1`, the CL free in [1] is 1100 mL/min/kg. Besides, the solubility thermodynamic at 48 h in data set [4] came to 27 µM (≈ 12.8 µg/mL).

For `C[C@H](NC(=O)[C@H](CCc1ccccc1)NC(=O)c1cc(Cl)c(Cl)[nH]1)c1cn2c(=O)n(C)cc(F)c2n1`, the CL free was found to be 163 mL/min/kg in data set [1] and 4830 mL/min/kg in data set [3]. Besides, the solubility thermodynamic at 48 h in data set [4] came to 4.5 µM (≈ 2.4 µg/mL). The bioavailability in [6] came to 1.6%. The molecule also showed a clearance in [5] of 45 mL/min/kg.

`C[C@H](NC(=O)[C@]1(NC(=O)c2cc(Cl)c(Cl)[nH]2)CO[C@H](c2ccccc2)C1)c1ncc2c(n1)CN(C1CCN(C)CC1)C2`: the half-life in [7] is 3.6 h. For the same molecule, the concentration at 1 h in data set [8] came to 108 ng/mL. The CL free in data set [9] is below 76.7 mL/min/kg; in data set [1], below 45 mL/min/kg; in data set [13], 102 mL/min/kg. In data set [10], this molecule gave a clearance of 18.3 mL/min/kg. For the same molecule, the solubility thermodynamic at 48 h is 460 µg/mL (≈ 751 µM) in [11] and above 1000 µM in [4]. Besides, the Vd in data set [12] came to 5 L/kg.

With `COCc1ccc([C@@H]2C[C@](NC(=O)c3cc(Cl)c(Cl)[nH]3)(C(=O)N[C@@H](C)c3ncc4c(n3)CN(C3CCN(C)CC3)C4)CO2)cc1`, the half-life in [7] is 1.5 h. In data set [8], the concentration at 1 h came out at 85 ng/mL. The CL free is below 53.3 mL/min/kg in data set [9], below 31.7 mL/min/kg in data set [1] and 250 mL/min/kg in [13]. Moreover, the clearance in data set [10] was 33.3 mL/min/kg. Further, the solubility thermodynamic at 48 h in data set [4] was determined as 60 µM (≈ 39.4 µg/mL). In [12], the Vd stood at 3.2 L/kg.

Molecule `C[C@H](NC(=O)[C@]1(NC(=O)c2cc(Cl)c(Cl)[nH]2)CO[C@H](c2ccccc2)C1)c1ncc2c(n1)COC2` showed a half-life in [7] of 0.47 h. Also, the concentration at 1 h in [8] is 190 ng/mL. In addition, the CL free amounted to 1080 mL/min/kg in [9], 132 mL/min/kg in [1] and 1430 mL/min/kg in [13]. This molecule also showed a clearance in data set [10] of 46.7 mL/min/kg. Further, the solubility thermodynamic at 48 h in [11] was found to be 16 µg/mL (≈ 31 µM); in data set [4], 17 µM (≈ 8.78 µg/mL). The Vd in data set [12] came out at 1.4 L/kg.

For `CN1Cc2cnc(CNC(=O)[C@H](CCc3ccccc3)NC(=O)c3cc(Cl)c(Cl)[nH]3)nc2C1`, the CL free in data set [1] came to 140 mL/min/kg. The solubility thermodynamic at 48 h in data set [4] amounted to 1.8 µM (≈ 0.877 µg/mL).

For `C[C@H](NC(=O)[C@]1(NC(=O)c2cc(Cl)c[nH]2)CO[C@H](c2ccccc2)C1)c1ncc2c(n1)CN(C1CCN(C)CC1)C2`, the half-life in data set [7] is 3.3 h. The concentration at 1 h in [8] was found to be 68 ng/mL. The values for the CL free in data set [9], in data set [1] and in data set [13] were below 60 mL/min/kg, below 35 mL/min/kg and 48.3 mL/min/kg, respectively. In [10], this molecule had a clearance of 21.7 mL/min/kg. Also, the solubility thermodynamic at 48 h worked out at 630 µg/mL (≈ 1090 µM) in [11] and 120 µM (≈ 69.4 µg/mL) in data set [4]. Besides, the Vd in [12] came out at 5.9 L/kg.

As to `O=C(N[C@@H](CCc1ccccc1)C(=O)NCc1ncc2c(n1)COC2)c1cc(Cl)c(Cl)[nH]1`, the CL free in data set [1] turned out to be 183 mL/min/kg. Further, the solubility thermodynamic at 48 h in data set [4] worked out at 8 µM (≈ 3.79 µg/mL).

As to `C[C@H](NC(=O)[C@]1(NC(=O)c2cc(Cl)c(Cl)[nH]2)CO[C@H](c2ccc(F)cc2)C1)c1ncc2c(n1)CN(C1CCN(C)CC1)C2`, the half-life in data set [7] was 3.5 h. Further, the concentration at 1 h in data set [8] is 139 ng/mL. Also, the CL free was below 36.7 mL/min/kg in data set [1] and 137 mL/min/kg in data set [13]. In data set [10], the clearance was 21.7 mL/min/kg. In data set [4], the solubility thermodynamic at 48 h is 510 µM (≈ 322 µg/mL). For the same molecule, in data set [12], the Vd amounted to 6.4 L/kg.

Broadly, the bioavailability is dose-corrected exposure relative to a reference, in per cent. Broadly, the clearance is the volume of plasma or blood freed of the substance per unit of time. A low value points to a low capacity for elimination. As a reminder, the half-life is the time needed for the level to fall by half in the phase considered.
